Results as given in US5061711A, “Method of curing liver diseases by using pyrrolo quinoline quinone triesters and novel pyrrolo quinoline quinone triesters” (Mitsubishi Gas Chemical Company, Inc., priority 1989, dated 1991).

Tests used:
male mice SPF-ICR = assay: Acute toxicity test; settings: mouse, in vivo
Description: To male mice SPF-ICR five weeks old (supplied by Japan Charles River Co.) were intraperitoneally administered PQQ.2Na, PQQ trimethyl ester and PQQ triallyl ester at dosages of 40, 80, 160 and 200 mg per kg of body weight of mouse, respectively and they were bred for 14 days at 25° C. One group consisted of 8 mice. For administration, PQQ.2Na was dissolved in physiological saline and PQQ trimethyl ester and PQQ triallyl ester were suspended in 1%Tween 80-containing physiological saline, respectively.

[1] = test system: carbon tetrachloride (CCl4)-induced liver diseases; assay: Pharmacological activity (2) on carbon tetrachloride (CCl4)-induced liver diseases; type: in vivo, SD rats; settings: CCl4 1 ml/kg rat i.p., 24 hours, average of five rats; for Total bilirubin in serum: CCl4 alone 0.9; for GPT in serum: CCl4 alone 949; for GOT in serum: CCl4 alone 1970
Description: Pharmacological activity (2) of PQQ triesters on carbon tetrachloride (CCl4)-induced liver diseases:
Forty SD rats (male, 7 weeks old, body weight: about 260 g; supplied by Japan Charles River Co.) were divided to eight groups (A-H) each consisting of five rats. All rats were fasted for 18 hours and 1.3 ml of a solution containing 2 mg/ml of PQQ trimethyl ester was intraperitoneally administered to the rats of group C, 1.3 ml of a solution containing 10 mg/ml of PQQ trimethyl ester was intraperitoneally administered to the rats of group D, 1.3 ml of a solution containing 20 mg/ml of PQQ trimethyl ester was intraperitoneally administered to the rats of group E, 1.3 ml of a solution containing 2 mg/ml of PQQ triallyl ester was intraperitoneally administered to the rats of group F, 1.3 ml of a solution containing […] was intraperitoneally administered to the rats of group G, and 1.3 ml of a solution containing 20 mg/ml of PQQ triallyl ester was intraperitoneally administered to the rats of group H and furthermore, after lapse of 50 minutes, the same PQQ triesters in the same doses as above were intraperitoneally administered to respective rats. In these cases, the PQQ triesters were suspended in physiological saline containing 1% Tween 80 and administered to the rats. 1.3 ml of physiological saline was intraperitoneally administered to the rats of group B in place of PQQ triesters. […] Neither PQQ triesters nor carbon tetrachloride were administered to the rats of group A.
After 24 hours from administration of carbon tetrachloride, blood was collected from abdominal main artery and serum was obtained by centrifugation therefrom.
GPT, […] and amount of total bilirubin in the serum were measured by clinical examination reagent (trademark: FUJI DRYCHEMSLIDE manufactured by Fuji Photo Film Co., Ltd.). The results are shown in Table 6 by average value of five rats.

[2] = bovine, not told, 960 min
[3] = test system: D-galactosamine-induced liver diseases; assay: Pharmacological effect (2) on D-galactosamine-induced liver diseases; type: in vivo, SD rats; settings: D-galactosamine 1 g/kg rat i.p., 23 hours, average of five rats; for Total bilirubin in serum: D-galactosamine alone 1.4; for GPT in serum: D-galactosamine alone 1560; for GOT in serum: D-galactosamine alone 2542
Description: Pharmacological effect (2) of PQQ triesters on D-galactosamine-induced liver diseases:
Forty SD rats (male, 7 weeks old, body weight: about 260 g; supplied by Japan Charles River Co.) were divided to eight groups (A-H) each consisting of five rats. All rats were fasted for 18 hours and 1.3 ml of a solution containing 1 mg/ml of PQQ trimethyl ester was orally administered to the rats of group C, 1.3 ml of a solution containing 2 mg/ml of PQQ trimethyl ester was orally administered to the rats of group D, 1.3 ml of a solution containing 3 mg/ml of PQQ trimethyl ester was orally administered to the rats of group E, 1.3 ml of a solution containing 1 mg/ml of PQQ triallyl ester was orally administered to the rats of group F, 1.3 ml of a solution containing 2 mg/ml of PQQ triallyl ester was orally administered to the rats of group G, and 1.3 ml of a solution containing 3 mg/ml of PQQ triallyl ester was orally administered to the rats of group H and furthermore, after lapse of 40 minutes, the same PQQ triesters in the same doses as above were orally administered to respective rats. In these cases, the PQQ triesters were suspended in physiological saline containing 1% Tween 80 and administered to the rats. 1.3 ml of physiological saline was orally administered to the rats of group B in place of PQQ triesters. Furthermore, after lapse of 20 minutes, 1.3 ml of a solution of d-galactosamine in 10 ml of physiological saline was intraperitoneally administered to the rats of groups B-H. Neither PQQ triesters nor D-galactosamine were administered to the rats of group A.
After 23 hours from administration of D-galactosamine, blood was collected from abdominal main artery and serum was obtained by centrifugation therefrom.
GPT, GOT and amount of total bilirubin in the serum were measured by clinical examination reagent (trademark: FUJI DRYCHEMSLIDE manufactured by Fuji Photo Film Co., Ltd.). The results are shown in Table 8 by average value of five rats.

| SMILES | mice died (male mice SPF-ICR) | Total bilirubin in serum ([1]; i.p. 10 mg/kg rat twice) | GPT in serum ([1]; i.p. 10 mg/kg rat twice) | GOT in serum ([1]; i.p. 10 mg/kg rat twice) | Total bilirubin in serum ([1]; i.p. 50 mg/kg rat twice) | GPT in serum ([1]; i.p. 50 mg/kg rat twice) | GOT in serum ([1]; i.p. 50 mg/kg rat twice) | Total bilirubin in serum ([1]; i.p. 100 mg/kg rat twice) | GPT in serum ([1]; i.p. 100 mg/kg rat twice) | GOT in serum ([1]; i.p. 100 mg/kg rat twice) | Membrane permeation constant [2] | membrane permeation constant relative to that of PQQ.2Na [2] | Total bilirubin in serum ([3]; oral 5 mg/kg rat twice) | GPT in serum ([3]; oral 5 mg/kg rat twice) | GOT in serum ([3]; oral 5 mg/kg rat twice) | Total bilirubin in serum ([3]; oral 10 mg/kg rat twice) | GPT in serum ([3]; oral 10 mg/kg rat twice) | GOT in serum ([3]; oral 10 mg/kg rat twice) | Total bilirubin in serum ([3]; oral 15 mg/kg rat twice) | GPT in serum ([3]; oral 15 mg/kg rat twice) | further results |
| --- | --- | --- | --- | --- | --- | --- | --- | --- | --- | --- | --- | --- | --- | --- | --- | --- | --- | --- | --- | --- | --- |
| C=CCOC(=O)c1cc(C(=O)OCC=C)c2c(n1)C(=O)C(=O)c1cc(C(=O)OCC=C)[nH]c1-2 [PQQ triallyl ester] | no mice died | 0.7 mg/dL | 323 U/l | 1186 U/l | 0.7 mg/dL | 583 U/l | 1270 U/l | 0.8 mg/dL | 576 U/l | 1563 U/l | 2.42 ± 0.60 10^-7 cm^2 · sec^-1 | 3-4 times | 1.1 mg/dL | 619 U/l | 1409 U/l | 0.9 mg/dL | 570 U/l | 1184 U/l | 1.0 mg/dL | 593 U/l | GOT in serum ([3]; oral 15 mg/kg rat twice): 1742 U/l |
| COC(=O)c1cc(C(=O)OC)c2c(n1)C(=O)C(=O)c1cc(C(=O)OC)[nH]c1-2 [PQQ trimethyl ester] | no mice died | 0.9 mg/dL | 479 U/l | 1263 U/l | 0.7 mg/dL | 645 U/l | 1543 U/l | 0.8 mg/dL | 676 U/l | 1605 U/l | 1.41 ± 0.48 10^-7 cm^2 · sec^-1 | about 2 times | 0.8 mg/dL | 431 U/l | 926 U/l | 0.7 mg/dL | 330 U/l | 540 U/l | 1.0 mg/dL | 701 U/l | GOT in serum ([3]; oral 15 mg/kg rat twice): 1260 U/l |
